PubChem BioAssay (NCI)
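Test compounds were applied to cells in 96-well plates for 48 hours at 5 doses. GI50 marks 50% less growth. TGI denotes the concentration required for complete inhibition of growth.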

Key:
Experiment in all cases: DTP human tumour cell line panel, 48 h
OVCAR-4 ovarian = system: OVCAR-4 ovarian
LOX IMVI melanoma = system: LOX IMVI melanoma
CCRF-CEM leukemia = system: CCRF-CEM leukemia
K-562 leukemia = system: K-562 leukemia
A549 NSCLC = system: A549 NSCLC
HS 578T breast = system: HS 578T breast
UACC-62 melanoma = system: UACC-62 melanoma
SK-MEL-2 melanoma = system: SK-MEL-2 melanoma
OVCAR-3 ovarian = system: OVCAR-3 ovarian
HL-60(TB) leukemia = system: HL-60(TB) leukemia
OVCAR-8 ovarian = system: OVCAR-8 ovarian
RPMI-8226 leukemia = system: RPMI-8226 leukemia
SF-539 CNS = system: SF-539 CNS
786-0 renal = system: 786-0 renal
NCI-H460 lung = system: NCI-H460 lung
MDA-MB-231 breast = system: MDA-MB-231 breast
U251 CNS = system: U251 CNS
SF-295 CNS = system: SF-295 CNS
A498 renal = system: A498 renal
MOLT-4 leukemia = system: MOLT-4 leukemia
NCI-H226 lung = system: NCI-H226 lung
MALME-3M melanoma = system: MALME-3M melanoma
SNB-75 CNS = system: SNB-75 CNS
SK-MEL-5 melanoma = system: SK-MEL-5 melanoma
NCI-H522 lung = system: NCI-H522 lung
SK-MEL-28 melanoma = system: SK-MEL-28 melanoma
RXF 393 renal = system: RXF 393 renal
IGROV1 ovarian = system: IGROV1 ovarian
UACC-257 melanoma = system: UACC-257 melanoma
HOP-92 NSCLC = system: HOP-92 NSCLC
HT29 colon = system: HT29 colon
SN12C renal = system: SN12C renal
PC-3 prostate = system: PC-3 prostate
SR leukemia = system: SR leukemia
HOP-62 NSCLC = system: HOP-62 NSCLC
SW-620 colon = system: SW-620 colon
UO-31 renal = system: UO-31 renal
HCT-116 colon = system: HCT-116 colon
TK-10 renal = system: TK-10 renal
ACHN renal = system: ACHN renal
COLO 205 colon = system: COLO 205 colon
MCF7 breast = system: MCF7 breast
T-47D breast = system: T-47D breast
HCT-15 colon = system: HCT-15 colon
DU-145 prostate = system: DU-145 prostate
SNB-19 CNS = system: SNB-19 CNS
OVCAR-5 ovarian = system: OVCAR-5 ovarian
SF-268 CNS = system: SF-268 CNS
KM12 colon = system: KM12 colon
M14 melanoma = system: M14 melanoma
SK-OV-3 ovarian = system: SK-OV-3 ovarian
CAKI-1 renal = system: CAKI-1 renal
NCI/ADR-RES ovarian = system: NCI/ADR-RES ovarian
MDA-MB-435 = system: MDA-MB-435
HCC-2998 colon = system: HCC-2998 colon
NCI-H23 lung = system: NCI-H23 lung
BT-549 breast = system: BT-549 breast

Molecule `C[C@@H](Nc1cc(F)cc(F)c1)c1cc(C(=O)N(C)C)cc2c(=O)cc(N3CCOCC3)oc12` has a GI50 (OVCAR-4 ovarian) of 26.1 µM, a TGI (OVCAR-4 ovarian) of over 100 µM and a GI50 (LOX IMVI melanoma) of 8.72 µM. It also gave a TGI (LOX IMVI melanoma) of over 100 µM, a GI50 (CCRF-CEM leukemia) of 27.5 µM and a TGI (CCRF-CEM leukemia) of over 100 µM. For the same molecule, the GI50 (K-562 leukemia) was 67.2 µM, the TGI (K-562 leukemia) was over 100 µM and the GI50 (A549 NSCLC) was 7.43 µM. It also gave a TGI (A549 NSCLC) of over 100 µM, a GI50 (HS 578T breast) of 0.693 µM and a TGI (HS 578T breast) of 23.6 µM. It also gave a GI50 (UACC-62 melanoma) of 1.13 µM, a TGI (UACC-62 melanoma) of 20.9 µM and a GI50 (SK-MEL-2 melanoma) of 25.8 µM. The TGI (SK-MEL-2 melanoma) was over 100 µM, the GI50 (OVCAR-3 ovarian) was 1.25 µM and the TGI (OVCAR-3 ovarian) was 61.8 µM. It also gave a GI50 (HL-60(TB) leukemia) of 2.17 µM, a TGI (HL-60(TB) leukemia) of over 57.6 µM and a GI50 (OVCAR-8 ovarian) of 25.5 µM. The TGI (OVCAR-8 ovarian) was over 100 µM, the GI50 (RPMI-8226 leukemia) was 36.7 µM and the TGI (RPMI-8226 leukemia) was over 100 µM. For the same molecule, the GI50 (SF-539 CNS) was 3.58 µM, the TGI (SF-539 CNS) was 50.3 µM and the GI50 (786-0 renal) was 0.192 µM. For the same molecule, the TGI (786-0 renal) was over 100 µM, the GI50 (NCI-H460 lung) was 5.61 µM and the TGI (NCI-H460 lung) was over 100 µM. The GI50 (MDA-MB-231 breast) was 24.7 µM, the TGI (MDA-MB-231 breast) was over 100 µM and the GI50 (U251 CNS) was 8.58 µM. It also gave a TGI (U251 CNS) of over 100 µM, a GI50 (SF-295 CNS) of 1.23 µM and a TGI (SF-295 CNS) of 59.9 µM. The TGI (A498 renal) was under 0.0203 µM, the GI50 (MOLT-4 leukemia) was 2.06 µM and the TGI (MOLT-4 leukemia) was 52.6 µM. The GI50 (NCI-H226 lung) was over 88.2 µM, the TGI (NCI-H226 lung) was over 100 µM and the GI50 (MALME-3M melanoma) was 7.12 µM. The TGI (MALME-3M melanoma) was over 84.9 µM, the GI50 (SNB-75 CNS) was 0.0398 µM and the TGI (SNB-75 CNS) was 3.64 µM. For the same molecule, the GI50 (SK-MEL-5 melanoma) was 22.1 µM, the TGI (SK-MEL-5 melanoma) was over 76.8 µM and the GI50 (NCI-H522 lung) was 20.8 µM. For the same molecule, the TGI (NCI-H522 lung) was over 100 µM, the GI50 (SK-MEL-28 melanoma) was 2.5 µM and the TGI (SK-MEL-28 melanoma) was over 100 µM. For the same molecule, the GI50 (RXF 393 renal) was 0.0251 µM, the TGI (RXF 393 renal) was 0.973 µM and the GI50 (IGROV1 ovarian) was 0.73 µM. The TGI (IGROV1 ovarian) was 11.1 µM, the GI50 (UACC-257 melanoma) was 2.6 µM and the TGI (UACC-257 melanoma) was over 100 µM. For the same molecule, the GI50 (HOP-92 NSCLC) was under 0.0389 µM, the TGI (HOP-92 NSCLC) was 13 µM and the GI50 (HT29 colon) was 4.04 µM. For the same molecule, the TGI (HT29 colon) was over 100 µM, the GI50 (SN12C renal) was 7.14 µM and the TGI (SN12C renal) was over 100 µM. It also gave a GI50 (PC-3 prostate) of 0.586 µM, a TGI (PC-3 prostate) of over 100 µM and a GI50 (SR leukemia) of 21.9 µM. For the same molecule, the TGI (SR leukemia) was over 100 µM, the GI50 (HOP-62 NSCLC) was 7.13 µM and the TGI (HOP-62 NSCLC) was over 100 µM. It also gave a GI50 (SW-620 colon) of 25.1 µM, a TGI (SW-620 colon) of over 100 µM and a GI50 (UO-31 renal) of 2.38 µM. The TGI (UO-31 renal) was over 100 µM, the GI50 (HCT-116 colon) was 10.2 µM and the TGI (HCT-116 colon) was over 100 µM. The GI50 (TK-10 renal) was 2.64 µM, the TGI (TK-10 renal) was over 100 µM and the GI50 (ACHN renal) was 3.51 µM. For the same molecule, the TGI (ACHN renal) was over 100 µM, the GI50 (COLO 205 colon) was 7.09 µM and the TGI (COLO 205 colon) was 51.1 µM. For the same molecule, the GI50 (MCF7 breast) was 0.894 µM, the TGI (MCF7 breast) was 99 µM and the GI50 (T-47D breast) was 0.315 µM. The TGI (T-47D breast) was 6.94 µM, the GI50 (HCT-15 colon) was 14.9 µM and the TGI (HCT-15 colon) was over 100 µM. It also gave a GI50 (DU-145 prostate) of 33.1 µM, a TGI (DU-145 prostate) of over 100 µM and a GI50 (SNB-19 CNS) of 10.7 µM. The TGI (SNB-19 CNS) was over 100 µM, the GI50 (OVCAR-5 ovarian) was 4.16 µM and the TGI (OVCAR-5 ovarian) was over 100 µM. For the same molecule, the GI50 (SF-268 CNS) was 22.4 µM, the TGI (SF-268 CNS) was over 100 µM and the GI50 (KM12 colon) was over 46.1 µM. It also gave a TGI (KM12 colon) of over 100 µM, a GI50 (M14 melanoma) of 24.3 µM and a TGI (M14 melanoma) of over 100 µM. For the same molecule, the GI50 (SK-OV-3 ovarian) was 2.18 µM, the TGI (SK-OV-3 ovarian) was over 65.3 µM and the GI50 (CAKI-1 renal) was 9.44 µM. The TGI (CAKI-1 renal) was over 100 µM, the GI50 (NCI/ADR-RES ovarian) was over 83.9 µM and the TGI (NCI/ADR-RES ovarian) was over 100 µM. The GI50 (MDA-MB-435) was 8.17 µM, the TGI (MDA-MB-435) was over 100 µM and the GI50 (HCC-2998 colon) was 10.4 µM. For the same molecule, the TGI (HCC-2998 colon) was over 100 µM, the GI50 (NCI-H23 lung) was over 87 µM and the TGI (NCI-H23 lung) was over 100 µM. For the same molecule, the GI50 (BT-549 breast) was 0.14 µM and the TGI (BT-549 breast) was 38.4 µM.
